Data taken from article PMC12873548, “D-amino acid substitution and cyclization enhance the stability and antimicrobial activity of arginine-rich peptides” (Microbiology, 2026).
Read-outs that look alike come from different tables or passages of the source. Residues, ends and D or L forms follow the SMILES beside them. No end group written: not given here. *: point of attachment. NHhexadecyl = CCCCCCCCCCCCCCCCN*

Legend:
E. coli (ATCC25922) = assay type: cell-based, Escherichia coli
Description: (§1) The MIC of arginine-based peptides was assessed using the microbroth dilution approach. Our in vitro screening included a panel of Gram-negative bacteria, Escherichia coli (ATCC 25922 and enterohaemorrhagic O157:H7) and Pseudomonas aeruginosa (PA01 and the drug-resistant strain NCTC 13437), and Gram-positive bacteria (Staphylococcus aureus ATCC 12600). Five-millilitre overnight cultures in Lysogeny broth, prepared from single isolated colonies, were diluted to 5×10^6 c.f.u. ml^−1 mid-log phase in Mueller–Hinton (MH) broth. Next, peptide concentrations (0 to 1 mM) were serially diluted twofold in 96-well plates and incubated overnight at 37 °C with the tested bacterial strains. In each case, the MIC was determined as the lowest peptide concentration at which no detectable bacterial growth was observed, employing an absorbance-based assay using a Tecan Spark® multimode plate reader. Subsequently, 10 µl aliquots from each peptide dilution were transferred to MH agar (1.5%) plates to determine the minimum bactericidal concentration (MBC) which was assessed by establishing at which concentration no visible growth of bacteria (assessed via colony formation) on the plate was observed.

E. coli (O157:H7) = assay type: cell-based, Escherichia coli; conditions: for MBC: 10 µl aliquots plated on MH agar, no visible colonies; for MIC: MH broth, 5×10^6 cells, 24 h, 37 °C, absorbance 600 nm, triplicate
Description: as §1

[1] = test system: P. aeruginosa (NCTC13437); assay type: cell-based, Pseudomonas aeruginosa; conditions: P. aeruginosa NCTC13437 (drug-resistant); for MBC: 10 µl aliquots plated on MH agar, no visible colonies; for MIC: MH broth, 5×10^6 cells, 24 h, 37 °C, absorbance 600 nm, triplicate
Description: as §1

P. aeruginosa (PA01) [2] = assay type: cell-based, Pseudomonas aeruginosa; conditions: for MIC: 24 h
Description: as §1

S. aureus (ATCC12600) = assay type: cell-based, Staphylococcus aureus
Description: as §1

E. coli (25922) = assay type: cell-based, Escherichia coli; conditions: for MIC, Control: control without serum or trypsin; for MIC, Trypsin: peptide incubated with 5 µM SGMT trypsin in 50 mM Tris-HCl, 1 mM CaCl2, pH 7.6, 24 h at 37 °C before MIC; for MIC, 20% human serum: peptide incubated with 20% human serum 24 h at 37 °C before MIC; for MIC, 50% human serum: peptide incubated with 50% human serum 24 h at 37 °C before MIC
Description: as §1
(§2) The antimicrobial activity and structural stability of arginine-rich peptides were evaluated in the presence of human serum (20% and 50 %) and 5 µM Sequencing Grade Modified Trypsin (SGMT, Promega). Briefly, fresh human blood was collected in EDTA tubes and allowed to clot at room temperature for 1 h. Serum was then collected following centrifugation at 2,000 r.p.m. for 10 min at 4 °C. Peptides were incubated with 20%, 50% human serum and 5 µM SGMT in 50 mM Tris-HCl buffer (1 mM CaCl₂, pH 7.6) for 24 h at 37 °C. After the incubation period, the solutions were further incubated with E. coli (ATCC 25922 and O157:H7), P. aeruginosa (PA01, NCTC13437) and S. aureus (ATCC12600), and the MIC was assessed as described in the ‘Antibacterial assessment’ section. Additionally, the samples were analysed using electrospray ionization MS to monitor structural changes based on the molecular weight of the peptides.

P. aeruginosa (PA01) [3] = assay type: cell-based, Pseudomonas aeruginosa; conditions: for MIC, Control: control without serum or trypsin; for MIC, Trypsin: peptide incubated with 5 µM SGMT trypsin in 50 mM Tris-HCl, 1 mM CaCl2, pH 7.6, 24 h at 37 °C before MIC; for MIC, 20% human serum: peptide incubated with 20% human serum 24 h at 37 °C before MIC; for MIC, 50% human serum: peptide incubated with 50% human serum 24 h at 37 °C before MIC
Description: as §1, §2

S. aureus (12600) = assay type: cell-based, Staphylococcus aureus; conditions: for MIC, Control: control without serum or trypsin; for MIC, Trypsin: peptide incubated with 5 µM SGMT trypsin in 50 mM Tris-HCl, 1 mM CaCl2, pH 7.6, 24 h at 37 °C before MIC; for MIC, 20% human serum: peptide incubated with 20% human serum 24 h at 37 °C before MIC; for MIC, 50% human serum: peptide incubated with 50% human serum 24 h at 37 °C before MIC
Description: as §1, §2

[4] = molecular target: T1, Sequencing Grade Modified Trypsin (Sus scrofa, UniProt P00761); experiment: Stability with trypsin by LC-MS; assay type: in vitro ADME; conditions: 5 µM SGMT trypsin, 50 mM Tris-HCl, 1 mM CaCl2, pH 7.6, 24 h, 37 °C; read-out LC-MS (ESI)
T1 construct: purchased Promega
T1 sequence (P00761 9-231): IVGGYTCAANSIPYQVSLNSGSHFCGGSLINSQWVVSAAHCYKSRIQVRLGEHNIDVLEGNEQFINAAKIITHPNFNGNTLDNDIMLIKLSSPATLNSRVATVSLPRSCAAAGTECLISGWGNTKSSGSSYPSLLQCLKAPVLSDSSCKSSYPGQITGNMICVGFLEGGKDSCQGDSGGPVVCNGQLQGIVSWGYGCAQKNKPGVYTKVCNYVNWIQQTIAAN
Description: as §2

L929 fibroblasts = assay type: cell-based; conditions: 24 h
Description: The toxicity screening of arginine-rich peptides was conducted in two cell types: human red blood cells (hRBCs) and L929 fibroblasts. The peptide-induced lysis of hRBCs was estimated based on the release of haemoglobin into solution, following a previously established protocol with slight modifications. Briefly, fresh human blood was collected from a healthy donor. To isolate hRBCs from plasma, the blood was centrifuged at 2,000 r.p.m. for 10 min at 4 °C, and the cells were carefully resuspended in 0.5% suspension buffer. After, they were added to a 96-well plate containing various concentrations of peptides diluted in PBS. After incubation for 1 h at 37 °C, cells were spun at 2,000 r.p.m. for 10 min at 4 °C to pellet cell debris and the supernatant collected and measured at OD414. The data was calculated as the % haemolysis relative to the positive control (cells treated with 1% Triton X-100). The toxicity screening using L929 fibroblasts was based on the metabolic activity of cells using an MTS colourimetric assay (Fig. S2). […] The absorbance was measured at OD490 using a Tecan Spark multimode plate reader. The quantification of viable cells was expressed as a % and determined by comparing peptide-treated groups with control cells grown in their absence. […]

[5] = test system: Gram-positive and Gram-negative bacteria; assay type: cell-based; conditions: span of MIC and MBC against both Gram-positive and Gram-negative bacteria, Table 2
Description: as §1

E. coli ATCC 25922 = experiment: Cytoplasmic membrane depolarization, DiSC3(5); assay type: cell-based, Escherichia coli; conditions: peptide at 2× MIC or 1,000 µM, positive control Triton X-100
Description: The dye 3,3′-dipropylthiadicarbocyanine iodide DiSC3(5) was employed to evaluate perturbation of the bacterial membrane by our designed arginine-rich peptides. For this, a black 96-well microtiter plate containing 150 µl E. coli cells (OD600=0.5) in MH broth per well was incubated with 0.5 µM DiSC3(5) in 5 mM HEPES buffer (pH 7.4, supplemented with 5 mM glucose and 0.1 M KCl) for 15 min to allow for fluorescence quenching. Then, 2× MIC or 1 mM peptide was added, and changes in fluorescence were monitored in real-time (λex=622 nm, λem=670 nm) using a microplate reader.

E. coli = experiment: Live/dead SYTO 9/PI fluorescence imaging; assay type: cell-based, Escherichia coli; conditions: mid-log phase E. coli, 2× MIC; red = damaged membranes
[6] = E. coli ATCC25922, 10 µl aliquots plated on MH agar, no visible colonies
[7] = E. coli ATCC25922, MH broth, 5×10^6 cells, 24 h, 37 °C, absorbance 600 nm, triplicate
[8] = P. aeruginosa PA01, 10 µl aliquots plated on MH agar, no visible colonies
[9] = P. aeruginosa PA01, MH broth, 5×10^6 cells, 37 °C, absorbance 600 nm, triplicate
[10] = S. aureus ATCC12600, 10 µl aliquots plated on MH agar, no visible colonies
[11] = S. aureus ATCC12600, MH broth, 5×10^6 cells, 24 h, 37 °C, absorbance 600 nm, triplicate

| Molecule | MBC (E. coli (ATCC25922); [6]) | MIC (E. coli (ATCC25922); [7]) | MBC (E. coli (O157:H7)) | MIC (E. coli (O157:H7)) | MBC (P. aeruginosa (PA01) [2]; [8]) | MIC (P. aeruginosa (PA01) [2]; [9]) | MBC (S. aureus (ATCC12600); [10]) | MIC (S. aureus (ATCC12600); [11]) | MIC, Control (E. coli (25922)) | MIC, Trypsin (E. coli (25922)) | MIC, 20% human serum (E. coli (25922)) | MIC, 50% human serum (E. coli (25922)) | MIC, Control (P. aeruginosa (PA01) [3]) | MIC, Trypsin (P. aeruginosa (PA01) [3]) | MIC, 20% human serum (P. aeruginosa (PA01) [3]) | MIC, 50% human serum (P. aeruginosa (PA01) [3]) | MIC, Control (S. aureus (12600)) | MIC, Trypsin (S. aureus (12600)) | MIC, 20% human serum (S. aureus (12600)) | MIC, 50% human serum (S. aureus (12600)) | also measured |
| --- | --- | --- | --- | --- | --- | --- | --- | --- | --- | --- | --- | --- | --- | --- | --- | --- | --- | --- | --- | --- | --- |
| RRARSAVAS [RRARSAVAS] | >1,000/>1,000 μM | >1,000/>1,000 μM | >1,000/>1,000 μM | >1,000/>1,000 μM | >1,000/>1,000 μM | >1,000/>1,000 μM | >1,000/>1,000 μM | >1,000/>1,000 μM | >1,000 μM | >1,000 μM | >1,000 μM | >1,000 μM | >1,000 μM | >1,000 μM | >1,000 μM | >1,000 μM | >1,000 μM | >1,000 μM | >1,000 μM | >1,000 μM | MBC [1]: >1,000/>1,000 μM; MIC [1]: >1,000/>1,000 μM |
| RRRRVVVV [Peptide R4V4] | 1,000/>1,000 μM | 1,000/>1,000 μM | 1,000/>1,000 μM | 1,000/>1,000 μM | >1,000/>1,000 μM | >1,000/>1,000 μM | >1,000/>1,000 μM | >1,000/>1,000 μM | 1,000 μM | >1,000 μM | 1,000 μM | >1,000 μM | >1,000 μM | >1,000 μM | >1,000 μM | >1,000 μM | >1,000 μM | >1,000 μM | >1,000 μM | >1,000 μM | – |
| RRRRFFFF [Peptide R4F4] | – | – | – | – | – | – | – | – | – | – | – | – | – | – | – | – | – | – | – | – | MBC (P. aeruginosa (PA01) [2]): 250 µM; MIC (P. aeruginosa (PA01) [2]): 125 µM; MBC (S. aureus (ATCC12600); ATCC12600): 250 µM; MIC (S. aureus (ATCC12600); ATCC12600, 24 h): 125 µM; Stability with trypsin (LC chromatogram and mass spectrum) [4]: degraded into smaller fragments; EC50 (L929 fibroblasts): 481 µM |
| CCCCCCCCCCCCCCCCNC(=O)[C@H](Cc1ccccc1)NC(=O)[C@H](Cc1ccccc1)NC(=O)[C@H](Cc1ccccc1)NC(=O)[C@H](Cc1ccccc1)NC(=O)[C@H](CCCNC(=N)N)NC(=O)[C@H](CCCNC(=N)N)NC(=O)[C@H](CCCNC(=N)N)NC(=O)[C@@H](N)CCCNC(=N)N [Peptide R4F4-C16] (H-RRRRFFFF-NHhexadecyl; N-terminus and C-terminus assumed) | 1,000/>1,000 μM | 1,000/>1,000 μM | >1,000/>1,000 μM | >1,000/>1,000 μM | >1,000/>1,000 μM | >1,000/>1,000 μM | >1,000/>1,000 μM | >1,000/>1,000 μM | 1,000 μM | >1,000 μM | 1,000 μM | >1,000 μM | >1,000 μM | >1,000 μM | >1,000 μM | >1,000 μM | >1,000 μM | >1,000 μM | >1,000 μM | >1,000 μM | MIC and MBC values over all tested strains [5]: > 1,000 µM; EC50 (L929 fibroblasts): 70 µM; Cytoplasmic membrane depolarization, DiSC3(5) fluorescence (E. coli ATCC 25922): Greater effects |
| Polymyxin B [reference compound] | 4.8 µM | 2.8 µM | 4.8 µM | 4.8 µM | 4.8 µM | 2.4 µM | > 76.8 µM | > 76.8 µM | 2.8 µM | 2.4 µM | 2.8 µM | 2.4 µM | 2.4 µM | 2.4 µM | 2.4 µM | 2.4 µM | >76.8 µM | >76.8 µM | >76.8 µM | >76.8 µM | MBC [1]: 38.4 µM; MIC [1]: 9.6 µM; Membrane damage, live/dead SYTO 9/PI staining (E. coli): high presence of red-stained cells indicative of damaged membranes |
| RRRRAAAA [Peptide R4A4] | 1,000/>1,000 μM | 1,000/>1,000 μM | >1,000/>1,000 μM | >1,000/>1,000 μM | >1,000/>1,000 μM | >1,000/>1,000 μM | >1,000/>1,000 μM | >1,000/>1,000 μM | 1,000 μM | >1,000 μM | 1,000 μM | >1,000 μM | >1,000 μM | >1,000 μM | >1,000 μM | >1,000 μM | >1,000 μM | >1,000 μM | >1,000 μM | >1,000 μM | – |
| PRRRRFFFF [PR4F4] | – | – | – | – | – | – | – | – | – | – | – | – | – | – | – | – | – | – | – | – | MBC (E. coli (ATCC25922); ATCC25922): 125 µM; MIC (E. coli (ATCC25922); ATCC25922, 24 h): 62.5 µM |
